Data from US11733243B2, “Use of acamprosate to modulate ERK1/2 activation in animal models for FXS and ASD and individuals diagnosed with FXS and ASD” (Indiana University Research and Technology Corporation, priority 2013, dated 2023).
“And” between values parts separate entries of the source, which are not always exact repeats. Equal values may be shown once. “Also recorded” adds a separate entry of the source.

Legend:
[1] = safety measures and adverse effects in the FXS trial; format: in vivo, human
Excerpt: Safety assessment and monitoring began at screen when all subjects underwent a medical history, physical examination, and full psychiatric interview. A physical examination was also completed at end point. Vital signs, including height and weight, were obtained at each study visit. At screen, genetic testing for FXS was obtained if record of molecular testing utilizing Southern Blot and PCR was not available. At screen, week 6, and endpoint, laboratory tests of blood and urine, including CBC with differential and platelets, electrolyte panel, liver associated enzymes, lipid panel, and urine pregnancy test (in females) were obtained. An electrocardiogram was also obtained at screen and endpoint.
The pilot study ran for 10 weeks. Safety lab screens were carried out at weeks 6 and 10. Physiologic parameters measured during the safety screens were as follows: vital signs, LFTs, electrolyte panels, CBC with diff/plts, lipid panel, glucose, urinalysis and ECG.
In-person clinical visits were scheduled for every two weeks. Telephonic evaluations were carried out at weeks 1, 3, and 5. Each subject was evaluated for side effects at every interaction with the practitioner.

[2] = tested on: leptin, beta endorphin, cortisol; details: humans with alcohol dependence; cited from earlier work
[3] = tested on: youths symptomatic for an autistic disorder; details: mean dose 1,110 mg/day, 10 to 30 weeks; cited from earlier work
[4] = safety and adverse effects in the autistic disorder trial; format: in vivo, human; details: idiopathic ASD, nine patients, range 600-1,998 mg/day
Method: A 12-week single-blind, placebo-controlled trial of the effect of acamprosate in the treatment of 12 youths with autistic disorder aged 5 to 17 years was carried out. In order to pilot test use of acamprosate in youth with autism targeting core social impairment, was conducted. All subjects and their family members were blinded to treatment status. All subjects participated in a 2 week placebo-lead-in phase prior to 10 weeks of treatment with acamprosate. For this project, enteric coated commercially available 333 mg acamprosate pills were over-encapsulated and identical matching placebo manufactured for the project. Placebo-responders, defined by a Clinical Global Impressions Improvement scale (CGI-I) score of 1 “very much improved” or 2 “much improved” (ratings anchored to core social deficits) at week 2 were asked to exit the study. During active treatment with acamprosate, dosing was increased in 333 mg increments per week over the first six weeks of active treatment to a maximum dose of 1,332 mg/day (weight<5 60 kg) or 1,998 mg/day (weight>60 kg). During the final four weeks of active drug treatment, subjects were maintained on a stable highest tolerated (optimal) dose. The primary outcome measure was the clinician-rated CGI-I anchored to symptoms of social impairment. […]

extracellular dopamine = details: rats; dependent on glycine receptor activation; cited from earlier work
GABA(A) = details: animal studies; cited from earlier work
ERK = assay: striatum pERK/ERK in WT and fmr1 KO mice treated with acamprosate; format: in vivo; design: ERK / Total: unit not given here
Excerpt: FIG. 4. Bar graph of pERK activity measured in WT and fmr1 KO mice treated with acamprosate
Referring now to FIG. 4. A summary of data collected using mouse models for ASD to measure the effect of acamprosate on the levels of ERK activity in wild-type and fmr1 (fragile X gene) Knock Out mice.

[5] = STRIATUM, KO Acam, individual mice, listed as Acam

Compound: CC(=O)NCCCS(=O)(=O)O [Acamprosate, 3-Acetamidopropane-1-sulfonic acid]
- changes in lipids, electrolytes, liver function tests, or blood counts ([1]; 10 weeks): no clinically significant or mean changes
- changes in weight, pulse, or blood pressure ([1]; 10 weeks): No clinically significant changes
- Increased body rocking (mild), Number of Patients ([1]; 12 subjects): 1
- subjects who experienced a mild adverse event ([1]; 12 subjects): 75%
- tolerability ([1]; 12 subjects, 10 weeks): well tolerated overall, with no severe or serious adverse effects
- changes on ECG including QTc interval ([1]; screen vs endpoint): No clinically significant changes were noted on ECG
- hormone levels [2]: lowers levels of several hormones: leptin, beta endorphin, cortisol
- youths judged treatment responders [3]: five of six
- tolerability [4]: well tolerated with no adverse effects leading to drug discontinuation or laboratory/vital sign abnormalities noted; also recorded: well tolerated with no adverse effects leading to drug discontinuation and no vital sign or safety laboratory changes noted
- extracellular dopamine levels in the nucleus accumbens (extracellular dopamine): elevates extracellular dopamine levels in the nucleus accumbens
- action at GABA(A) (GABA(A)): exhibits GABA(A) agonism
- A = ERK/Total (ERK; [5]): 1.31 and 1.57 and 2.78 and 2.43 and 2.19 and 2.25 and 1.71
- ERK (ERK; [5]): 24161 and 32570 and 26811 and 27464 and 25163 and 21441 and 25808
- Total (ERK; [5]): 18506 and 20784 and 9659 and 11290 and 11468 and 9535 and 15062
- pERK (ERK; [5]): 26311 and 37905 and 34961 and 25699 and 25451 and 19381 and 25020
- pERK/A (ERK; [5]): 20152.78 and 24188.44 and 12595.14 and 10564.44 and 11599.26 and 8618.90 and 14602.11
- pERK/A (ERK; STRIATUM, KO Acam, individual mice, listed as acamp): 20152.78 and 24188.44 and 12595.14 and 10564.44 and 11599.26 and 8618.90 and 14602.11
- pERK (group mean of pERK/A) (ERK; STRIATUM, KO acamp, WT sal 14455.22, KO sal 21048.75, T Test 0.96 vs WT, 0.20 vs KO sal): 14617.30
- effect on ERK activation in fmr1 knockout animals (ERK; fmr1 knockout animals): restores activated ERK to wild-type levels
